{"source": "patent US9561201B2", "about": "“Therapeutic compounds” (Fibrotech Therapeutics Pty Ltd, priority 2006, dated 2017)", "key": {"Mesangial cells": {"system": "Mesangial cells", "test": "PDGF stimulated matrix synthesis (proline incorporation) in mesangial cells (Example 3)", "format": "cell-based, rat", "from_the_text": "Matrix synthesis may be stimulated by platelet derived growth factor (PDGF)."}, "[1]": {"system": "Neonatal rat cardiac fibroblasts (NCFs)", "test": "NCF TGF-β collagen synthesis, 3H-proline incorporation (Example 6)", "format": "cell-based", "experimental": "Neonatal SD rat cardiac myocytes (NCMs) and fibroblasts (NCFs) were isolated from one-day-old pups with enzymatic digestion as described in detail previously. NCFs were seeded and maintained in high-glucose (25 mmol/L) Dulbecco's modified Eagle's medium (DMEM) (Invitrogen Mount Waverley, Vic, Australia) in the presence of 1% antibiotic/antimycotic (AB/AM) and 10% fetal bovine serum (FBS) (JRH biosciences, Kansas, USA). NCFs were used at passage 2 [31]. Purified NCMs were seeded (1000 cells/mm^2) in 6-well plates and then maintained in serum-free DMEM (Invitrogen, NY, USA) supplemented with insulin and transferrin as described previously (4). Bromodeoxyuridine was included for the first 3 days. 50 mmol/L KCl was added to the medium to prevent spontaneous contraction characteristic of the plated NCMs.\nNCFs collagen synthesis assays were performed as described previously. Briefly, NCFs plated at a density of 50,000 cells/well in 12-well plate and incubated overnight. NCFs were then serum starved for 24 hours in high-glucose DMEM. […]\nFor collagen synthesis, 1 μCi of [^3H]-Proline was added to each well and incubated for further 48 hours before harvest. Cells were harvested by precipitation with 10% TCA on ice for 30 min, before solubilisation with 0.75 mL of 1 mol/L NaOH overnight at 4° C. The samples were then neutralized with 1 mol/L HCl and ^3H level were counted with 10 ml scintillation fluid on a beta-counter to determine [^3H]-proline incorporation."}, "[2]": {"system": "neonatal SD rat cardiac fibroblasts", "test": "Angiotensin II-stimulated fibrosis (proline incorporation) in neonatal cardiac fibroblasts (Example 4)", "format": "cell-based", "experimental": "(§1) Matrix synthesis may be stimulated by both angiotensin II or transforming growth factor beta (TGF-β).\n(§2) Neonatal SD rat cardiac fibroblasts (NCFs) were isolated from one-day-old pups with enzymatic digestion. NCFs were purified by percoll gradient and seeded with DMEM in the present of 1% antibiotic/antimycotic (AB/AM) and 10% fatal bovine serum (FBS). NCFs were then subcultured when they are about 80% confluence. The second passage of NCFs was used for the assays.\n(§3) NCFs were seeded at 25,000 cells/well in 12-well plates and incubated at 37° C. and 5% CO2 overnight in DMEM with 1% AB/AM and 10% FBS. Cells were then washed with DMEM and then the media replaced with DMEM/F12 with 1% AB/AM, 0.5% Bovine Serum Albumin (BSA) and Vitamin C, before being incubated at 37° C. and 5% CO2 for 24 hours.\n(§4) The effect of FT011 on TGF-β- or angiotensin II-stimulated fibrosis in the neonatal SD rat cardiac fibroblasts was investigated."}, "[3]": {"system": "STZ diabetic (mRen-2)27 rats", "test": "Diabetic (mRen-2)27 rats treated with FT011", "format": "in vivo", "conditions": "for GFR: 16 weeks", "quoted_text": "Forty six-week old female, heterozygous (mRen-2)27 rats (St. Vincent's Hospital Animal House, Melbourne, Australia) were assigned to receive either 55 mg/kg of STZ (Sigma, St. Louis, USA) diluted in 0.1 M citrate buffer, pH 4.5 or citrate buffer alone (non-diabetic) by tail vein injection following an overnight fast. […] Treatment commenced within 24 hours of STZ or citrate buffer injection.\nRats were individually housed in metabolic cages at 4, 8 12 and 16 weeks, habituated for 2 to 3 hours, and urine collected over 24 hours. […] After 24 hours in metabolic cages, an aliquot of urine (5 mL) was collected from the 24-hour urine sample and stored at −70° C. for subsequent analysis of albumin by radio-immunoassay, as previously performed [36]. Prior to sacrifice, the glomerular filtration rate (GFR) was determined by injecting a single shot of 99Tc-DTPA into the tail vein and sampling the blood after 43 minutes, as previously described [37].\nRats were anaesthetised (Nembutal 60 mg/kg body wt i.p. Boehringer-Ingelheim, Australia). […] Kidneys were excised, decapsulated, sliced transversely, half of the kidney snap frozen for tissue RNA assay and other half immersed fix with formalin and paraffin-embedded for subsequent light microscopic evaluation.\nHistopathological changes in kidney and heart were assessed in a masked protocol.\nIn 4 μm kidney sections stained with PAS, 150 to 200 glomeruli from rats were examined in a masked protocol. […] A glomerulosclerotic index (GSI) was then calculated using the Formula (4):\nTo assess the tubulointerstitial fibrosis in kidney sections were stained with modified Masson's trichrome. Briefly, 5 random non-overlapping fields from 10 rats per group were captured and digitised using a BX50 microscope attached to a Fujix HC5000 digital camera. Digital images were then loaded onto a Pentium III IBM computer as described as above. An area of red in heart and blue in kidney on picrosirius red and trichrome-stained section, respectively, were selected for its color range and the proportional area of tissue with this range of color was then quantified. Calculation of the proportional area stained red and blue (matrix) was then determined using image analysis (AIS, Analytical imaging Station Version 6.0, Ontario, Canada) [37, 39]."}, "rat mesangial cell line [4]": {"system": "rat mesangial cell line", "test": "Effect on mesangial cell appearance (visual monitoring during proline assay)", "format": "cell-based", "conditions": "@ 100 μM"}, "rat mesangial cell line [5]": {"system": "rat mesangial cell line", "test": "TGF-β stimulated 3H-proline incorporation in mesangial cells (Example 5)", "format": "cell-based", "conditions": "for Mesangial Cell Assay TGF-β % reduction of TGF-β stimulation_proline inc.: 5 ng/mL TGF-β1, 44 h"}, "[6]": {"system": "neonatal SD rat cardiac fibroblasts", "test": "TGF-β-stimulated fibrosis (proline incorporation) in neonatal cardiac fibroblasts (Example 4)", "format": "cell-based", "experimental": "as §1, §2, §3, §4"}, "[7]": {"conditions": "diabetic rats, 100 mg/kg bid gavage"}}, "data": [{"smiles": "C#CCOc1ccc(/C=C/C(=O)Nc2ccccc2C(=O)O)cc1OC", "note": "[Analogue 11]", "values": [{"measurement": "PDGF-stimulated matrix synthesis (proline incorporation)", "setting": "Mesangial cells; 30 and 100 μM", "value": "inhibits"}, {"measurement": "potency at reducing proline incorporation compared with tranilast", "setting": "Mesangial cells; PDGF stimulation, 30 μM", "value": "more potent"}, {"measurement": "NCF TGF-β Collagen Synthesis", "setting": "[1]; @ 30 μM", "value": 32, "unit": "% @ 30 μM"}, {"measurement": "NCF TGF-β Collagen Synthesis", "setting": "[1]; @ 100 μM", "value": 87, "unit": "% @ 100 μM"}, {"measurement": "angiotensin II-stimulated fibrosis (proline incorporation)", "setting": "[2]", "value": "inhibited"}, {"measurement": "GFR", "setting": "[3]; diabetic rats + FT011 100 mg/kg bid gavage", "value": "5.90 ± 0.20", "unit": "mL/min"}, {"measurement": "extent of glomerulosclerosis (PAS-stained sections)", "setting": "[3]; [7]", "value": "reduction"}, {"measurement": "rise in albuminuria", "setting": "[3]; [7]", "value": "significantly attenuated"}, {"measurement": "tubular (tubulointerstitial) fibrosis (trichrome-stained sections)", "setting": "[3]; [7]", "value": "reduction"}, {"measurement": "GFR", "setting": "[3]; non-diabetic control rats + FT011 100 mg/kg bid gavage", "value": "3.63 ± 0.08", "unit": "mL/min"}, {"measurement": "Effect on mesangial cell appearance", "setting": "rat mesangial cell line [4]", "value": "stress @"}, {"measurement": "Mesangial Cell Assay TGF-β % reduction of TGF-β stimulation_proline inc.", "setting": "rat mesangial cell line [5]; @ 3 μM", "value": 15, "unit": "% @ 3"}, {"measurement": "Mesangial Cell Assay TGF-β % reduction of TGF-β stimulation_proline inc.", "setting": "rat mesangial cell line [5]; @ 10 μM", "value": "20-50% @ 10"}, {"measurement": "Mesangial Cell Assay TGF-β % reduction of TGF-β stimulation_proline inc.", "setting": "rat mesangial cell line [5]; @ 30 μM", "value": "50-75% @ 30"}, {"measurement": "Mesangial Cell Assay TGF-β % reduction of TGF-β stimulation_proline inc.", "setting": "rat mesangial cell line [5]; @ 100 μM", "value": "60-100% @ 100"}, {"measurement": "Collagen synthesis", "setting": "rat mesangial cell line [5]; inhibition ranked against tranilast (T) or FT11", "value": ">T"}, {"measurement": "TGF-β-stimulated fibrosis (proline incorporation)", "setting": "[6]", "value": "inhibited"}]}]}
